Measured values from patent US12370192B2, “Azole-fused pyridazin-3(2H)-one derivatives” (TAKEDA PHARMACEUTICAL COMPANY LIMITED, priority 2019, dated 2025).

Legend:
human GPR139 receptor [1] = target: T1, human GPR139 receptor (Homo sapiens, UniProt Q6DWJ6); experiment: GPR139 Competition Binding (membrane-based, tritium-labeled ligand); conditions: T-REx-CHO membranes with human GPR139; 6.5 nM tritium-labeled ligand; 11-point curve, 30 μM maximum concentration; read-out: GPR139 Binding Affinity (pKi) (converted)
T1 construct: expressed in transfected cells; host or cells: T-REx-CHO (Thermo Fisher Scientific), doxycycline-induced
T1 sequence (Q6DWJ6 1-353): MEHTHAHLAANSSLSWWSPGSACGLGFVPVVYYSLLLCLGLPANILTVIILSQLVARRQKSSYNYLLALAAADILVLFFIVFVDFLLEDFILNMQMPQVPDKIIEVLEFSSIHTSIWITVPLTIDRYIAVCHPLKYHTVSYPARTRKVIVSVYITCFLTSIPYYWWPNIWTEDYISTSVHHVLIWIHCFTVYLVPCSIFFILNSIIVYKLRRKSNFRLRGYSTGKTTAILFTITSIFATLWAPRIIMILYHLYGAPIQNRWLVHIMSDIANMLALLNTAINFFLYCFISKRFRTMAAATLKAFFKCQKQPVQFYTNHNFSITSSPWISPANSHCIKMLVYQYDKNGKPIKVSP
Protocol: OPR139 Competition Binding
This membrane-based assay measures the ability of compounds to competitively bind GPR139 in stably transfected TREx™-CHO membranes. To prepare the membranes, T-REx™-CHO (Thermo Fisher Scientific®) cells are stably expressed with human GPR139 receptor, whose expression is controlled by a tetracycline-inducible element. The cells are cultured in medium containing F-12K nutrient mixture-Kaighn's modification, 10% tetracycline-free FBS, Blasticidin S HCl (10 μg/mL) and Hygromycin B (200 μg/mL). GPR139 receptor expression is induced for 18 hours with 2 μg/mL doxycycline (Sigma D9891) in growth media. After addition of doxycycline, cells are harvested in PBS and pelleted by centrifugation for 5 minutes at 200×G. Liquid is aspirated off and cells are resuspended in ice cold lysis buffer (20 mM HEPES/5 mM EDTA pH 7.4/1× Roche® protease inhibitor). Samples are vortexed until homogenous and then placed on ice and homogenized using a Dounce homogenizer at 50% power (3 cycles, 10 strokes per cycle). Lysate is centrifuged at 4° C. for 10 minutes in a tabletop Sorvall® centrifuge at 2000×G. The supernatant is recovered and centrifuged in a Sorvall® ultracentrifuge at 35,000 rpm for 30 minutes at 4° C. The supernatant is discarded, and the remaining pellet resuspended in lysis buffer (20 mM HEPES/0.1 mM EGTA/Roche® protease inhibitor). Membrane protein concentration is determined using Thermo Fisher® BCA quantification kit and is aliquoted into microtubes. Tubes are snap frozen in liquid nitrogen and stored at −80° C. Prior to use, the membranes are removed from cold storage, thawed to room temperature, vortexed until homogenous and diluted in assay buffer (20 mM HEPES pH 7.3, 5 mM MgCl2, 1 mM CaCl2), 1× Thermo Scientific® Halt™ protease inhibitor (78429)).
The assay is run in 96-well, polypropylene, v-bottom plates (Greiner Bio-One® 651201). Test compound in DMSO is added to the wells of each plate (11-point dose response curve, 30 μM maximum concentration, 3-fold serial dilution). A fixed amount of tritium-labeled ligand, (S)-2-(2,3-dimethyl-7-oxothieno[2,3-d]pyridazin-6(7H)-yl)-N-(1-(4-methoxyphenyl-2-t)propan-2-yl)acetamide (Quotient Bioresearch) in assay buffer (6.5 nM assay concentration) is added to each well of the assay plate, which is then agitated on a plate shaker for 30 seconds. Next, a fixed amount of membranes in assay buffer (2 μg membranes) is added to each well of the assay plate, which is then spun for 30 seconds at 300 rpm in a tabletop Eppendorf centrifuge, and then incubated at room temperature for 20 minutes. Using a Tomtec harvester, the contents of the assay plate are transferred to Filtermat A (PerkinElmer® No. 1450-421) which prior to use is pre-soaked in 0.5% PEI (Sigma P3143) for 3 hours and dried at room temperature overnight. Following transfer, the Filtermat is washed 5 times with cold wash buffer (20 mM HEPES pH 7.3, 100 mM NaCl). The Filtermat is dried using a microwave oven and placed in a sample bag (PerkinElmer® No. 1450-432) with a scintillator sheet (PerkinElmer® No. 1450-411). The scintillator sheet is melted to the Filtermat using a heat block set to 65° C., placed in a MicroBeta® cartridge and read using a MicroBeta® scintillation counter. Binding curves are generated with a four-parameter logistic equation using GraphPad Prism® 6 and the inhibition constant Ki is reported as pKi.

human GPR139 receptor [2] = target: T1, human GPR139 receptor; experiment: Measurement of GPR139 Activation Via Calcium Signaling (FLIPR, T-REx-CHO cells); type: cell-based; conditions: T-REx-CHO cells stably expressing human GPR139, 11-point dose response, 10 μM maximum concentration, read-out: GPR139 Potency (pEC50) (converted)
Protocol: Measurement of GPR139 Activation Via Calcium Signaling
This cell-based assay measures the ability of compounds to activate GPR139 in stably transfected T-REx™-CHO cells. T-REx™-CHO cells (Thermo Fisher Scientific®) are stably expressed with human GPR139 receptor, whose expression is controlled by a tetracycline-inducible element. The cells are cultured in medium containing F-12K nutrient mixture-Kaighn's modification, TripleLE™ Express (1×)-phenol red, Dulbecco's phosphate-buffered saline (1×), 10% tetracycline-free FBS, Blasticidin S HCl (10 μg/mL) and Hygromycin B (200 μg/mL). The cells are introduced into the wells of a 384-well black clear bottom plate (Costar®) at 10,000 cells/well. GPR139 receptor expression is induced with 2 μg/mL doxycycline (Sigma D9891). The plate is allowed to stand at room temperature for 10-30 minutes and then incubated at 37° C. and 5% CO2 for 17 hours prior to assay.
Culture media is removed from cells and 45 μL of 1× calcium dye (2.5 mM) is added to each well and incubated at 37° C. and 5% CO2 for 40 minutes. The plate is removed from the incubator and allowed to stand at RT for 20 minutes without a plate cover prior to measurement of calcium signaling. The calcium dye is prepared by adding 10 mL of assay buffer (Hank's Balanced Salt Solution (1×), 1 mM HEPES at pH 7.4) to one vial of calcium dye (FLIPR® Calcium 5 Assay Kit; Molecular Devices) at room temperature, vortexing the mixture until homogenous, and transferring the dye to a 250 mL flask using 10 mL of assay, buffer to rinse the vial. The dye is subsequently transferred to a conical flask, which is filled to the 200 mL mark with assay buffer, and 1 mL of […] probenecid solution (142.68 mg/mL in 1M NaOH aq) is added.
Example compounds suspended in DMSO are received from compound management in microtiter plates (0.25 μL/well) and are diluted in assay buffer (25 μL). Following incubation of the cell plate, the Example compounds are added to the cells (11-point dose response, 10 μM maximum concentration) using a FLIPR® Tetra system (Molecular Devices) and fluorescence is measured continuously for 1 minute. EC50 curves are generated with a four-parameter logistic equation using GraphPad Prism® 6, and activation of GPR139 for each example compound is reported as pEC50.

Row | Ki (human GPR139 receptor [1]) | EC50 (human GPR139 receptor [2]) | SMILES
1 | 11 nM | 200 nM | Cc1ccc([C@H](C)NC(=O)Cn2nc(C)c3cnn(C(C)(C)C)c3c2=O)c(F)c1 [Example 16, (S)-2-(1-(tert-butyl)-4-methyl-7-oxo-1,7-dihydro-6H-pyrazolo[3,4-d]pyridazin-6-yl)-N-(1-(2-fluoro-4-methylphenyl)ethyl)acetamide]
2 | 2950 nM | 57.5 nM | COc1ccc([C@H](C)NC(=O)Cn2ncc3c(c(C)nn3C(C)C)c2=O)cc1 [Example 17, (S)-2-(1-isopropyl-3-methyl-4-oxo-1,4-dihydro-5H-pyrazolo[3,4-d]pyridazin-5-yl)-N-(1-(4-methoxyphenyl)ethyl)acetamide]
3 | 355 nM | 170 nM | COc1ccc([C@H](C)NC(=O)Cn2ncc3c(c(C4CC4)nn3C(C)C)c2=O)cc1 [Example 18, (S)-2-(3-cyclopropyl-1-isopropyl-4-oxo-1,4-dihydro-5H-pyrazolo[3,4-d]pyridazin-5-yl)-N-(1-(4-methoxyphenyl)ethyl)acetamide]
4 | 1070 nM | 67.6 nM | COc1ccc([C@H](C)NC(=O)Cn2ncc3c(c(C)nn3C)c2=O)c(F)c1 [Example 19, (S)-2-(1,3-dimethyl-4-oxo-1,4-dihydro-5H-pyrazolo[3,4-d]pyridazin-5-yl)-N-(1-(2-fluoro-4-methoxyphenyl)ethyl)acetamide]
5 | 178 nM | 41.7 nM | Cc1ccc([C@H](C)NC(=O)Cn2nc(C)c3c(C)nn(C)c3c2=O)cc1 [Example 20, (S)—N-(1-(p-tolyl)ethyl)-2-(1,3,4-trimethyl-7-oxo-1,7-dihydro-6H-pyrazolo[3,4-d]pyridazin-6-yl)acetamide]
6 | 28.2 nM | 115 nM | Cc1ccc([C@H](C)NC(=O)Cn2nc(C)c3c(C)nn(C(C)C)c3c2=O)cc1 [Example 21, (S)-2-(1-isopropyl-3,4-dimethyl-7-oxo-1,7-dihydro-6H-pyrazolo[3,4-d]pyridazin-6-yl)-N-(1-(p-tolyl)ethyl)acetamide]
7 | 9.12 nM | 105 nM | Cc1ccc([C@H](C)NC(=O)Cn2nc(C)c3c(C)nn(C4CC4)c3c2=O)cc1 [Example 22, (S)-2-(1-cyclopropyl-3,4-dimethyl-7-oxo-1,7-dihydro-6H-pyrazolo[3,4-d]pyridazin-6-yl)-N-(1-(p-tolyl)ethyl)acetamide]
8 | 102 nM | 166 nM | Cc1ccc([C@H](C)NC(=O)Cn2ncc3c(C)nn(C(C)C)c3c2=O)cc1 [Example 23]
9 | 97.7 nM | 46.8 nM | Cc1nn(C2CC2)c2cnn(CC(=O)N[C@@H](C)c3ccc(Cl)cc3F)c(=O)c12 [Example 24, (S)—N-(1-(4-chloro-2-fluorophenyl)ethyl)-2-(1-cyclopropyl-3-methyl-4-oxo-1,4-dihydro-5H-pyrazolo[3,4-d]pyridazin-5-yl)acetamide]
10 | 617 nM | 23.4 nM | Cc1nn(C2CC2)c2cnn(CC(=O)N[C@@H](C)c3cccc(F)c3)c(=O)c12 [Example 25, (S)-2-(1-cyclopropyl-3-methyl-4-oxo-1,4-dihydro-5H-pyrazolo[3,4-d]pyridazin-5-yl)-N-(1-(3-fluorophenyl)ethyl)acetamide]
11 | 38900 nM | 933 nM | Cc1ccc(C)c([C@H](C)NC(=O)Cn2ncc3c(c(C)nn3C3CC3)c2=O)c1 [Example 26, (S)-2-(1-cyclopropyl-3-methyl-4-oxo-1,4-dihydro-5H-pyrazolo[3,4-d]pyridazin-5-yl)-N-(1-(2,5-dimethylphenyl)ethyl)acetamide]
12 | 219 nM | 240 nM | Cc1ccc([C@H](C)NC(=O)Cn2ncc3c(C)nn(C)c3c2=O)cc1 [Example 27, (S)-2-(1,3-dimethyl-7-oxo-1,7-dihydro-6H-pyrazolo[3,4-d]pyridazin-6-yl)-N-(1-(p-tolyl)ethyl)acetamide]
13 | 32.4 nM | 52.5 nM | Cc1ccc([C@H](C)NC(=O)Cn2ncc3c(C)nn(C4CC4)c3c2=O)cc1 [Example 28, (S)-2-(1-cyclopropyl-3-methyl-7-oxo-1,7-dihydro-6H-pyrazolo[3,4-d]pyridazin-6-yl)-N-(1-(p-tolyl)ethyl)acetamide]
14 | 30200 nM | 513 nM | Cc1ccc([C@H](C)NC(=O)Cn2nc(C)c3c(ncn3C)c2=O)cc1 [Example 29, (S)-2-(1,7-dimethyl-4-oxo-1,4-dihydro-5H-imidazo[4,5-d]pyridazin-5-yl)-N-(1-(p-tolyl)ethyl)acetamide]
15 | 257 nM | 72.4 nM | Cc1nn(C2CC2)c2cnn(CC(=O)N[C@@H](C)c3cccc(F)c3F)c(=O)c12 [Example 30, (S)-2-(1-cyclopropyl-3-methyl-4-oxo-1,4-dihydro-5H-pyrazolo[3,4-d]pyridazin-5-yl)-N-(1-(2,3-difluorophenyl)ethyl)acetamide]
16 | 11700 nM | 57.5 nM | COc1ccc([C@H](C)NC(=O)Cn2ncc3c(c(C)nn3C3CC3)c2=O)cc1C [Example 31, (S)-2-(1-cyclopropyl-3-methyl-4-oxo-1,4-dihydro-5H-pyrazolo[3,4-d]pyridazin-5-yl)-N-(1-(4-methoxy-3-methylphenyl)ethyl)acetamide]
17 | 30200 nM | 617 nM | Cc1nn(C2CC2)c2cnn(CC(=O)N[C@@H](C)c3ccc(C(F)(F)F)cn3)c(=O)c12 [Example 32]
